≈ marks a conversion by molar mass, not a printed value.
Test system: Bacillus cereus
Assay: Antibacterial activity against Bacillus cereus MTCC 8372 at 50 ug/ml after 24 hrs by disc diffusion method
Format: functional
Details: MTCC 8372, 24 h, read-out: IZ

Structure (SMILES)	zone of inhibition at 50 µg/mL [mm]
CN(C)[C@@H]1C(O)=C(C(N)=O)C(=O)[C@@]2(O)C(O)=C3C(=O)c4c(O)cccc4[C@@](C)(O)[C@H]3C[C@@H]12 [TETRACYCLINE]	10
CCOC(=O)c1c(-c2ccccc2)nn(-c2ccccc2)c1Cn1c(S)nc2ccc(OC(F)F)cc21	11

Test system: Bacillus cereus
Assay: Antibacterial activity against Bacillus cereus MTCC 8372 at 100 ug/ml after 24 hrs by disc diffusion method
Format: functional
Details: MTCC 8372, 24 h, read-out: IZ

Structure (SMILES)	zone of inhibition at 100 µg/mL [mm]
CN(C)[C@@H]1C(O)=C(C(N)=O)C(=O)[C@@]2(O)C(O)=C3C(=O)c4c(O)cccc4[C@@](C)(O)[C@H]3C[C@@H]12 [TETRACYCLINE]	22
CCOC(=O)c1c(-c2ccccc2)nn(-c2ccccc2)c1Cn1c(S)nc2ccc(OC(F)F)cc21	26

Test system: Staphylococcus aureus
Assay: Antibacterial activity against Staphylococcus aureus MTCC 96 at 50 ug/ml after 24 hrs by disc diffusion method
Format: functional
Details: MTCC 96, 24 h, read-out: IZ

Structure (SMILES)	zone of inhibition at 50 µg/mL [mm]
CN(C)[C@@H]1C(O)=C(C(N)=O)C(=O)[C@@]2(O)C(O)=C3C(=O)c4c(O)cccc4[C@@](C)(O)[C@H]3C[C@@H]12 [TETRACYCLINE]	10
CCOC(=O)c1c(-c2ccccc2)nn(-c2ccccc2)c1Cn1c(S)nc2ccc(OC(F)F)cc21	12

Test system: Staphylococcus aureus
Assay: Antibacterial activity against Staphylococcus aureus MTCC 96 at 100 ug/ml after 24 hrs by disc diffusion method
Format: functional
Details: MTCC 96, 24 h, read-out: IZ

Structure (SMILES)	zone of inhibition at 100 µg/mL [mm]
CN(C)[C@@H]1C(O)=C(C(N)=O)C(=O)[C@@]2(O)C(O)=C3C(=O)c4c(O)cccc4[C@@](C)(O)[C@H]3C[C@@H]12 [TETRACYCLINE]	20
CCOC(=O)c1c(-c2ccccc2)nn(-c2ccccc2)c1Cn1c(S)nc2ccc(OC(F)F)cc21	21

Test system: Escherichia coli
Assay: Antibacterial activity against Escherichia coli MTCC 724 at 50 ug/ml after 24 hrs by disc diffusion method
Format: functional
Details: MTCC 724, 24 h, read-out: IZ

Structure (SMILES)	zone of inhibition at 50 µg/mL [mm]
CN(C)[C@@H]1C(O)=C(C(N)=O)C(=O)[C@@]2(O)C(O)=C3C(=O)c4c(O)cccc4[C@@](C)(O)[C@H]3C[C@@H]12 [TETRACYCLINE]	18
CCOC(=O)c1c(-c2ccccc2)nn(-c2ccccc2)c1Cn1c(S)nc2ccc(OC(F)F)cc21	20

Test system: Escherichia coli
Assay: Antibacterial activity against Escherichia coli MTCC 724 at 100 ug/ml after 24 hrs by disc diffusion method
Format: functional
Details: MTCC 724, 24 h, read-out: IZ

Structure (SMILES)	zone of inhibition at 100 µg/mL [mm]
CN(C)[C@@H]1C(O)=C(C(N)=O)C(=O)[C@@]2(O)C(O)=C3C(=O)c4c(O)cccc4[C@@](C)(O)[C@H]3C[C@@H]12 [TETRACYCLINE]	30
CCOC(=O)c1c(-c2ccccc2)nn(-c2ccccc2)c1Cn1c(S)nc2ccc(OC(F)F)cc21	33

Test system: Klebsiella pneumoniae
Assay: Antibacterial activity against Klebsiella pneumoniae MTCC 3384 at 50 ug/ml after 24 hrs by disc diffusion method
Format: functional
Details: MTCC 3384, 24 h, read-out: IZ

Structure (SMILES)	zone of inhibition at 50 µg/mL [mm]
CN(C)[C@@H]1C(O)=C(C(N)=O)C(=O)[C@@]2(O)C(O)=C3C(=O)c4c(O)cccc4[C@@](C)(O)[C@H]3C[C@@H]12 [TETRACYCLINE]	12
CCOC(=O)c1c(-c2ccccc2)nn(-c2ccccc2)c1Cn1c(S)nc2ccc(OC(F)F)cc21	16

Test system: Klebsiella pneumoniae
Assay: Antibacterial activity against Klebsiella pneumoniae MTCC 3384 at 100 ug/ml after 24 hrs by disc diffusion method
Format: functional
Details: MTCC 3384, 24 h, read-out: IZ

Structure (SMILES)	zone of inhibition at 100 µg/mL [mm]
CN(C)[C@@H]1C(O)=C(C(N)=O)C(=O)[C@@]2(O)C(O)=C3C(=O)c4c(O)cccc4[C@@](C)(O)[C@H]3C[C@@H]12 [TETRACYCLINE]	20
CCOC(=O)c1c(-c2ccccc2)nn(-c2ccccc2)c1Cn1c(S)nc2ccc(OC(F)F)cc21	28

Test system: Aspergillus flavus
Assay: Antifungal activity against Aspergillus flavus MTCC 873 at 50 ug/ml after 24 hrs by disc diffusion method
Format: functional
Details: MTCC 873, 24 h, read-out: IZ

Structure (SMILES)	zone of inhibition at 50 µg/mL [mm]
CCOC(=O)c1c(-c2ccccc2)nn(-c2ccccc2)c1Cn1c(S)nc2ccc(OC(F)F)cc21	18

Test system: Aspergillus flavus
Assay: Antifungal activity against Aspergillus flavus MTCC 873 at 100 ug/ml after 24 hrs by disc diffusion method
Format: functional
Details: MTCC 873, 24 h, read-out: IZ

Structure (SMILES)	zone of inhibition at 100 µg/mL [mm]
CCOC(=O)c1c(-c2ccccc2)nn(-c2ccccc2)c1Cn1c(S)nc2ccc(OC(F)F)cc21	20

Test system: Aspergillus niger
Assay: Antifungal activity against Aspergillus niger MTCC 281 at 50 ug/ml after 24 hrs by disc diffusion method
Format: functional
Details: MTCC 281, 24 h, read-out: IZ

Structure (SMILES)	zone of inhibition at 50 µg/mL [mm]
CCOC(=O)c1c(-c2ccccc2)nn(-c2ccccc2)c1Cn1c(S)nc2ccc(OC(F)F)cc21	12

Test system: Bacillus cereus
Assay: Antibacterial activity against Bacillus cereus MTCC 8372 after 24 hrs by microdilution method
Format: functional
Details: MTCC 8372, 24 h

Structure (SMILES)	MIC [µg/mL]
CN(C)[C@@H]1C(O)=C(C(N)=O)C(=O)[C@@]2(O)C(O)=C3C(=O)c4c(O)cccc4[C@@](C)(O)[C@H]3C[C@@H]12 [TETRACYCLINE]	4 (≈ 9 µM)
CCOC(=O)c1c(-c2ccccc2)nn(-c2ccccc2)c1Cn1c(S)nc2ccc(OC(F)F)cc21	10 (≈ 19.2 µM)

Test system: Bacillus cereus
Assay: Antibacterial activity against Bacillus cereus MTCC 8372 assessed as concentration required to completely destroy test microorganisms after 24 hrs
Format: functional
Details: MTCC 8372, 24 h

Structure (SMILES)	MBC [µg/mL]
CN(C)[C@@H]1C(O)=C(C(N)=O)C(=O)[C@@]2(O)C(O)=C3C(=O)c4c(O)cccc4[C@@](C)(O)[C@H]3C[C@@H]12 [TETRACYCLINE]	120 (≈ 270 µM)
CCOC(=O)c1c(-c2ccccc2)nn(-c2ccccc2)c1Cn1c(S)nc2ccc(OC(F)F)cc21	130 (≈ 250 µM)

Test system: Staphylococcus aureus
Assay: Antibacterial activity against Staphylococcus aureus MTCC 96 after 24 hrs by microdilution method
Format: functional
Details: MTCC 96, 24 h

Structure (SMILES)	MIC [µg/mL]
CN(C)[C@@H]1C(O)=C(C(N)=O)C(=O)[C@@]2(O)C(O)=C3C(=O)c4c(O)cccc4[C@@](C)(O)[C@H]3C[C@@H]12 [TETRACYCLINE]	10 (≈ 22.5 µM)
CCOC(=O)c1c(-c2ccccc2)nn(-c2ccccc2)c1Cn1c(S)nc2ccc(OC(F)F)cc21	20 (≈ 38.4 µM)

Test system: Staphylococcus aureus
Assay: Antibacterial activity against Staphylococcus aureus MTCC 96 assessed as concentration required to completely destroy test microorganisms after 24 hrs
Format: functional
Details: MTCC 96, 24 h

Structure (SMILES)	MBC [µg/mL]
CN(C)[C@@H]1C(O)=C(C(N)=O)C(=O)[C@@]2(O)C(O)=C3C(=O)c4c(O)cccc4[C@@](C)(O)[C@H]3C[C@@H]12 [TETRACYCLINE]	120 (≈ 270 µM)
CCOC(=O)c1c(-c2ccccc2)nn(-c2ccccc2)c1Cn1c(S)nc2ccc(OC(F)F)cc21	120 (≈ 231 µM)

Test system: Escherichia coli
Assay: Antibacterial activity against Escherichia coli MTCC 724 after 24 hrs by microdilution method
Format: functional
Details: MTCC 724, 24 h

Structure (SMILES)	MIC [µg/mL]
CN(C)[C@@H]1C(O)=C(C(N)=O)C(=O)[C@@]2(O)C(O)=C3C(=O)c4c(O)cccc4[C@@](C)(O)[C@H]3C[C@@H]12 [TETRACYCLINE]	12 (≈ 27 µM)
CCOC(=O)c1c(-c2ccccc2)nn(-c2ccccc2)c1Cn1c(S)nc2ccc(OC(F)F)cc21	15 (≈ 28.8 µM)

Test system: Escherichia coli
Assay: Antibacterial activity against Escherichia coli MTCC 724 assessed as concentration required to completely destroy test microorganisms after 24 hrs
Format: functional
Details: MTCC 724, 24 h

Structure (SMILES)	MBC [µg/mL]
CN(C)[C@@H]1C(O)=C(C(N)=O)C(=O)[C@@]2(O)C(O)=C3C(=O)c4c(O)cccc4[C@@](C)(O)[C@H]3C[C@@H]12 [TETRACYCLINE]	120 (≈ 270 µM)
CCOC(=O)c1c(-c2ccccc2)nn(-c2ccccc2)c1Cn1c(S)nc2ccc(OC(F)F)cc21	135 (≈ 259 µM)

Test system: Klebsiella pneumoniae
Assay: Antibacterial activity against Klebsiella pneumoniae MTCC 3384 after 24 hrs by microdilution method
Format: functional
Details: MTCC 3384, 24 h

Structure (SMILES)	MIC [µg/mL]
CN(C)[C@@H]1C(O)=C(C(N)=O)C(=O)[C@@]2(O)C(O)=C3C(=O)c4c(O)cccc4[C@@](C)(O)[C@H]3C[C@@H]12 [TETRACYCLINE]	8 (≈ 18 µM)
CCOC(=O)c1c(-c2ccccc2)nn(-c2ccccc2)c1Cn1c(S)nc2ccc(OC(F)F)cc21	15 (≈ 28.8 µM)

Test system: Klebsiella pneumoniae
Assay: Antibacterial activity against Klebsiella pneumoniae MTCC 3384 assessed as concentration required to completely destroy test microorganisms after 24 hrs
Format: functional
Details: MTCC 3384, 24 h

Structure (SMILES)	MBC [µg/mL]
CN(C)[C@@H]1C(O)=C(C(N)=O)C(=O)[C@@]2(O)C(O)=C3C(=O)c4c(O)cccc4[C@@](C)(O)[C@H]3C[C@@H]12 [TETRACYCLINE]	120 (≈ 270 µM)
CCOC(=O)c1c(-c2ccccc2)nn(-c2ccccc2)c1Cn1c(S)nc2ccc(OC(F)F)cc21	130 (≈ 250 µM)

Test system: Aspergillus flavus
Assay: Antifungal activity against Aspergillus flavus MTCC 873 after 48 hrs by microdilution method
Format: functional
Details: MTCC 873, 48 h

MIC [µg/mL]	Structure (SMILES)
30 (≈ 57.6 µM)	CCOC(=O)c1c(-c2ccccc2)nn(-c2ccccc2)c1Cn1c(S)nc2ccc(OC(F)F)cc21

Test system: Aspergillus flavus
Assay: Antifungal activity against Aspergillus flavus MTCC 873 assessed as concentration required to completely destroy test microorganisms after 24 hrs
Format: functional
Details: MTCC 873, 24 h

Structure (SMILES)	MFC [µg/mL]
CCOC(=O)c1c(-c2ccccc2)nn(-c2ccccc2)c1Cn1c(S)nc2ccc(OC(F)F)cc21	155 (≈ 298 µM)

Test system: Aspergillus niger
Assay: Antifungal activity against Aspergillus niger MTCC 281 after 48 hrs by microdilution method
Format: functional
Details: MTCC 281, 48 h

MIC [µg/mL]	Structure (SMILES)
25 (≈ 48 µM)	CCOC(=O)c1c(-c2ccccc2)nn(-c2ccccc2)c1Cn1c(S)nc2ccc(OC(F)F)cc21

Test system: Aspergillus niger
Assay: Antifungal activity against Aspergillus niger MTCC 281 assessed as concentration required to completely destroy test microorganisms after 24 hrs
Format: functional
Details: MTCC 281, 24 h

Structure (SMILES)	MFC [µg/mL]
CCOC(=O)c1c(-c2ccccc2)nn(-c2ccccc2)c1Cn1c(S)nc2ccc(OC(F)F)cc21	145 (≈ 279 µM)

Test system: Aspergillus niger
Assay: Antifungal activity against Aspergillus niger MTCC 281 at 100 ug/ml after 24 hrs by disc diffusion method
Format: functional
Details: MTCC 281, 24 h, read-out: IZ

Structure (SMILES)	zone of inhibition at 100 µg/mL [mm]
CCOC(=O)c1c(-c2ccccc2)nn(-c2ccccc2)c1Cn1c(S)nc2ccc(OC(F)F)cc21	22

Molecular target: T1, Alpha amylase (Homo sapiens, UniProt P0DUB6)
T1 sequence (P0DUB6 whole entry): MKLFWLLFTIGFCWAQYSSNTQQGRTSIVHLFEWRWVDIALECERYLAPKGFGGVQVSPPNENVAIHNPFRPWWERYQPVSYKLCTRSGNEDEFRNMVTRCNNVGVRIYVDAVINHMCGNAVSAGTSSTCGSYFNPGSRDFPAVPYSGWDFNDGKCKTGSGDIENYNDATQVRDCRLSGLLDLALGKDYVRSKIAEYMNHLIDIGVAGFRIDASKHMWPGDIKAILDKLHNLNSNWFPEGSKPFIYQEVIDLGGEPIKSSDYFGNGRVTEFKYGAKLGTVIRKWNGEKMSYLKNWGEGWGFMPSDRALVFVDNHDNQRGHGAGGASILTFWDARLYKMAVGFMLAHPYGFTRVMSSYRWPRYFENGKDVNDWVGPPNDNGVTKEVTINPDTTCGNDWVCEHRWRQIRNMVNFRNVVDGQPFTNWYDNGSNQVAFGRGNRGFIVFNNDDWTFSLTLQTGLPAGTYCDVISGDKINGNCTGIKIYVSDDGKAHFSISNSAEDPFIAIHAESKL
Assay: Inhibition of alpha-amylase (unknown origin) using starch as substrate after 30 mins by spectrophotometer analysis
Details: not given

IC50 [µg/mL]	Structure (SMILES)
10 (≈ 19.2 µM)	CCOC(=O)c1c(-c2ccccc2)nn(-c2ccccc2)c1Cn1c(S)nc2ccc(OC(F)F)cc21

Molecular target: not listed separately
Assay: Inhibition of alpha-glucosidase (unknown origin) using p-nitrophenol glycoside as substrate after 30 mins by colorimetric analysis
Parameters: species or system Homo sapiens
Details: not given

IC50 [µg/mL]	Structure (SMILES)
15 (≈ 28.8 µM)	CCOC(=O)c1c(-c2ccccc2)nn(-c2ccccc2)c1Cn1c(S)nc2ccc(OC(F)F)cc21
